Source: patent US10512700B2, “Radiohalide-labeled targeted diagnostics and therapeutics” (Memorial Sloan Kettering Cancer Center, priority 2014, dated 2019)
Values joined by “and” are separate entries in the source; they are usually repeats but may differ in a detail not shown here. Identical values can stand only once.

Key:
[1] = Stability in whole blood (in vitro); assay type: in vitro ADME, mouse
Method: […] […] The sample was centrifuged at 3000 RCF for 3 min at 4° C., and the supernatant collected. This procedure was repeated three times, and the combined supernatants analyzed by HPLC equipped with radioactive detector (Shimadzu, Kyoto, Japan), collecting samples every 30 sec. Radioactivity of each fraction was measured on a Wizard 2470 Automatic Gamma Counter (Perkin Elmer, Waltham, Mass.) and the blood stability was analyzed using Prism 6.0c (GraphPad Software, La Jolla, Calif.).

Blood half-life = assay type: in vivo, mouse; details: healthy athymic nude mice, tail vein
Method: The blood half-life was determined by measuring the activity in serial blood samplings. […] Measurements in counts per minute were calculated as the mean % ID/g. The blood half-life was calculated using Prism 6.0c (GraphPad Software, La Jolla, Calif.).
The blood half-life was calculated by measuring the activity of blood samples collected at different time points p.i. […] The collected blood was weighed and counted in a WIZARD^2 automatic γ-counter (PerkinElmer, Boston, Mass.). The blood half-life was calculated using Prism 6.0c (GraphPad Software, La Jolla, Calif.) using a two-phase decay least squares fitting method and expressed as % ID/g.

[2] = tested on: orthotopic U251 MG tumor-bearing mice; experiment: Autoradiography using C-2d; assay type: in vivo, mouse
Method: U251 MG glioblastoma cells (5×10^4 in 2 μL of PBS) were orthotopically implanted in athymic nude mice, using a stereotaxic device, and the tumors allowed to grow for approximately 4 weeks. […] Additionally, healthy mice were also injected with 500 μCi C-2d. After 2 h of circulation time after the C-2d injection, the mice were sacrificed. Liver, tumor, muscle, and brain tissues were excised and embedded in O.C.T. compound (Sakura Finetek, Torrance, Calif.) and frozen at −20° C., and a series of 8 μm frozen sections was cut and mounted on microscope slides. To determine radiotracer distribution, digital autoradiography was performed by placing tissue sections in a film cassette against a phosphor image plate (BASMS-2325; Fujifilm) for 48 h at −20° C. Phosphor imaging plates were read at a pixel resolution of 25 μm with a Typhoon 7000IP plate reader (GE Healthcare, Piscataway, N.J.) (images not shown). After autoradiographic exposure, the same frozen sections were then used for […] staining. Areas of brain slides containing tumor tissue were identified using the H&E staining and then overlaid with the autoradiographic data (images not shown). Intensity of tumor areas and non-tumor areas were then quantified using ImageJ 1.47 u (see FIGS. 5A and 5B).

[3] = tested on: U251 MG tumor bearing mice; experiment: Biodistribution; assay type: in vivo, mouse; details: C-2d, i.v., 2 h post injection
Method: Biodistribution studies were conducted on female nude mice (8-10 weeks old and 20-25 g in weight, n=21) bearing U251 MG subcutaneous xenografts. The radiolabeled preparation (20-30 μCi of compound C-2d (^131I) in 200 μL of a solution 90% PBS 10% PEG300) was administrated via the lateral tail vein. The compound was allowed to circulate for 2 h post injection at which time mice were sacrificed and organs were harvested (n=3). The radioactive content in tissue of interest (blood, tumor, muscle, bone, liver, spleen, kidney, heart, lung, pancreas, brain, skin, small intestine, large intestine, stomach, tail, thyroid and feces) was measured on a Wizard 2470 Automatic Gamma Counter, and the tissue-associated activity was calculated as the mean % ID/g using the following formula: [(activity in the target organ/grams of tissue)/injected dose]×100%.
Biodistribution studies were performed in subcutaneous U251 MG xenograft bearing athymic nude mice (n=12). Mice were divided in two groups (blocked and unblocked) and administered with C-2f (approximately 50 μCi, 45 mCi/μmol in […], 10% EtOH in 0.9% sterile saline) via tail vein injection. […] Mice were sacrificed by CO2 asphyxiation at 120 min post injection and major organs were collected, weighed, and counted in a WIZARD^2 automatic γ-counter (PerkinElmer, Boston, Mass.). The radiopharmaceutical uptake was expressed as a percentage of injected dose per gram (% ID/g) using the following formula: [(activity in the target organ/grams of tissue)/injected dose]×100%.

[4] = autoradiography, mice that received no olaparib

Structure (SMILES): O=C(c1ccc([131I])cc1)N1CCN(C(=O)c2cc(Cc3n[nH]c(=O)c4ccccc34)ccc2F)CC1 [C-2d (^131I)]
- in vitro blood stability ([1]; mouse blood, 37° C., over 60 min): confirmed the stability of the compound
- in vitro blood stability ([1]; over the course of 120 minutes): confirmed the stability of the compound
- alpha blood half-life (Blood half-life): 14.3 min
- alpha blood half-life, share of phase (Blood half-life): 96.25%
- beta blood half-life (Blood half-life): 94.6 min
- beta blood half-life, share of phase (Blood half-life): 3.75%
- weighted blood half-life (Blood half-life; 50 μCi): 17.1 min
- signal intensity in tumor tissue vs healthy brain tissue [2, 4]: 15.7 fold
- signal intensity in tumor tissue vs muscle tissue [2, 4]: 6.2 fold
- reduction in intensity of the autoradiography signal in tumor tissue ([2]; mice treated with olaparib): 65%
- autoradiography signal, muscle ([2]; with olaparib treatment): 248±72 AU
- autoradiography signal, tumor tissue ([2]; with olaparib treatment): 536±87 AU
- autoradiography signal, muscle ([2]; without olaparib treatment): 192±20 AU
- autoradiography signal, tumor tissue ([2]; without olaparib treatment): 1222±203 AU
- % ID/g, Blood [3]: 0.27 % ID/g
- % ID/g, Bone [3]: 0.07 % ID/g
- % ID/g, Brain [3]: 0.011±0.003 % ID/g and 0.01 % ID/g
- % ID/g, Feces [3]: 4.34 % ID/g
- % ID/g, Heart [3]: 0.16 % ID/g
- % ID/g, Kidneys [3]: 0.61 % ID/g
- % ID/g, Large intestine [3]: 1.26 % ID/g
- % ID/g, Liver [3]: 2.34 % ID/g
- % ID/g, Lung [3]: 0.28 % ID/g
- % ID/g, Muscle [3]: 0.03±0.01 % ID/g and 0.03 % ID/g
- % ID/g, Pancreas [3]: 0.15 % ID/g
- % ID/g, Skin [3]: 0.25 % ID/g
- % ID/g, Small intestine [3]: 11.70 % ID/g
- % ID/g, Spleen [3]: 0.40 % ID/g
- % ID/g, Stomach [3]: 0.88 % ID/g
- % ID/g, Tail [3]: 0.60 % ID/g
- % ID/g, Thyroid [3]: 0.24 % ID/g
- % ID/g, Tumor [3]: 0.43±0.06 % ID/g and 0.43 % ID/g
